Experimental data from article doi:10.1101/2021.04.08.439011v1 (biorxiv, 2021).

Assays:
CHEK2 = CHEK2 (Homo sapiens, UniProt O96017); details: 0.1 µM; binder
OSR1 = OSR1 (Homo sapiens, UniProt O95747); details: 0.1 µM; binder
PRKCH = PRKCH (Homo sapiens, UniProt P24723); details: 0.1 µM; binder
EPHB4 = EPHB4 (Homo sapiens, UniProt P54760); details: 0.1 µM; binder
SRC = SRC (Homo sapiens, UniProt P12931); details: 0.1 µM; binder
TLK2 = TLK2 (Homo sapiens, UniProt Q86UE8); details: 0.1 µM; binder
MYO3B = MYO3B (Homo sapiens, UniProt Q8WXR4); details: 0.1 µM; binder
CDK5 = CDK5 (Homo sapiens, UniProt Q00535); details: 0.1 µM; binder
YANK3 = YANK3 (Homo sapiens, UniProt Q86UX6); details: 0.1 µM; binder
CAMK1D = CAMK1D (Homo sapiens, UniProt Q8IU85); details: 0.1 µM; binder
ROCK1 = ROCK1 (Homo sapiens, UniProt Q13464); details: 0.1 µM; binder
ICK = ICK (Homo sapiens, UniProt Q9UPZ9); details: 0.1 µM; binder
PIK3CA(H1047L) = PIK3CA(H1047L) (Homo sapiens, UniProt P42336, H1047L); details: 0.1 µM; binder
PRKD1 = PRKD1 (Homo sapiens, UniProt Q15139); details: 0.1 µM; binder
AURKC = AURKC (Homo sapiens, UniProt Q9UQB9); details: 0.1 µM; binder
CDK8 = CDK8 (Homo sapiens, UniProt P49336); details: 0.1 µM; binder
RET(M918T) = RET(M918T) (Homo sapiens, UniProt P07949, M918T); details: 0.1 µM; binder
KIT(D816V) = KIT(D816V) (Homo sapiens, UniProt P10721, D816V); details: 0.1 µM; binder
PDPK1 = PDPK1 (Homo sapiens, UniProt O15530); details: 0.1 µM; binder
ULK3 = ULK3 (Homo sapiens, UniProt Q6PHR2); details: 0.1 µM; binder
FYN = FYN (Homo sapiens, UniProt P06241); details: 0.1 µM; binder
MARK3 = MARK3 (Homo sapiens, UniProt P27448); details: 0.1 µM; binder
PKN2 = PKN2 (Homo sapiens, UniProt Q16513); details: 0.1 µM; binder
MET(M1250T) = MET(M1250T) (Homo sapiens, UniProt P08581, M1250T); details: 0.1 µM; binder
KIT(A829P) = KIT(A829P) (Homo sapiens, UniProt P10721, A829P); details: 0.1 µM; binder
CLK1 = CLK1 (Homo sapiens, UniProt P49759); details: 0.1 µM; binder
ABL1(E255K) = ABL1(E255K) (Homo sapiens, UniProt P00519, E255K); details: phosphorylated; 0.1 µM; binder
SRPK2 = SRPK2 (Homo sapiens, UniProt P78362); details: 0.1 µM; binder
CSNK1G1 = CSNK1G1 (Homo sapiens, UniProt Q9HCP0); details: 0.1 µM; binder
PCTK2 = PCTK2 (Homo sapiens, UniProt Q00537); details: 0.1 µM; binder
CIT = CIT (Homo sapiens, UniProt O14578); details: 0.1 µM; binder
Chain of CIT (O14578 whole entry): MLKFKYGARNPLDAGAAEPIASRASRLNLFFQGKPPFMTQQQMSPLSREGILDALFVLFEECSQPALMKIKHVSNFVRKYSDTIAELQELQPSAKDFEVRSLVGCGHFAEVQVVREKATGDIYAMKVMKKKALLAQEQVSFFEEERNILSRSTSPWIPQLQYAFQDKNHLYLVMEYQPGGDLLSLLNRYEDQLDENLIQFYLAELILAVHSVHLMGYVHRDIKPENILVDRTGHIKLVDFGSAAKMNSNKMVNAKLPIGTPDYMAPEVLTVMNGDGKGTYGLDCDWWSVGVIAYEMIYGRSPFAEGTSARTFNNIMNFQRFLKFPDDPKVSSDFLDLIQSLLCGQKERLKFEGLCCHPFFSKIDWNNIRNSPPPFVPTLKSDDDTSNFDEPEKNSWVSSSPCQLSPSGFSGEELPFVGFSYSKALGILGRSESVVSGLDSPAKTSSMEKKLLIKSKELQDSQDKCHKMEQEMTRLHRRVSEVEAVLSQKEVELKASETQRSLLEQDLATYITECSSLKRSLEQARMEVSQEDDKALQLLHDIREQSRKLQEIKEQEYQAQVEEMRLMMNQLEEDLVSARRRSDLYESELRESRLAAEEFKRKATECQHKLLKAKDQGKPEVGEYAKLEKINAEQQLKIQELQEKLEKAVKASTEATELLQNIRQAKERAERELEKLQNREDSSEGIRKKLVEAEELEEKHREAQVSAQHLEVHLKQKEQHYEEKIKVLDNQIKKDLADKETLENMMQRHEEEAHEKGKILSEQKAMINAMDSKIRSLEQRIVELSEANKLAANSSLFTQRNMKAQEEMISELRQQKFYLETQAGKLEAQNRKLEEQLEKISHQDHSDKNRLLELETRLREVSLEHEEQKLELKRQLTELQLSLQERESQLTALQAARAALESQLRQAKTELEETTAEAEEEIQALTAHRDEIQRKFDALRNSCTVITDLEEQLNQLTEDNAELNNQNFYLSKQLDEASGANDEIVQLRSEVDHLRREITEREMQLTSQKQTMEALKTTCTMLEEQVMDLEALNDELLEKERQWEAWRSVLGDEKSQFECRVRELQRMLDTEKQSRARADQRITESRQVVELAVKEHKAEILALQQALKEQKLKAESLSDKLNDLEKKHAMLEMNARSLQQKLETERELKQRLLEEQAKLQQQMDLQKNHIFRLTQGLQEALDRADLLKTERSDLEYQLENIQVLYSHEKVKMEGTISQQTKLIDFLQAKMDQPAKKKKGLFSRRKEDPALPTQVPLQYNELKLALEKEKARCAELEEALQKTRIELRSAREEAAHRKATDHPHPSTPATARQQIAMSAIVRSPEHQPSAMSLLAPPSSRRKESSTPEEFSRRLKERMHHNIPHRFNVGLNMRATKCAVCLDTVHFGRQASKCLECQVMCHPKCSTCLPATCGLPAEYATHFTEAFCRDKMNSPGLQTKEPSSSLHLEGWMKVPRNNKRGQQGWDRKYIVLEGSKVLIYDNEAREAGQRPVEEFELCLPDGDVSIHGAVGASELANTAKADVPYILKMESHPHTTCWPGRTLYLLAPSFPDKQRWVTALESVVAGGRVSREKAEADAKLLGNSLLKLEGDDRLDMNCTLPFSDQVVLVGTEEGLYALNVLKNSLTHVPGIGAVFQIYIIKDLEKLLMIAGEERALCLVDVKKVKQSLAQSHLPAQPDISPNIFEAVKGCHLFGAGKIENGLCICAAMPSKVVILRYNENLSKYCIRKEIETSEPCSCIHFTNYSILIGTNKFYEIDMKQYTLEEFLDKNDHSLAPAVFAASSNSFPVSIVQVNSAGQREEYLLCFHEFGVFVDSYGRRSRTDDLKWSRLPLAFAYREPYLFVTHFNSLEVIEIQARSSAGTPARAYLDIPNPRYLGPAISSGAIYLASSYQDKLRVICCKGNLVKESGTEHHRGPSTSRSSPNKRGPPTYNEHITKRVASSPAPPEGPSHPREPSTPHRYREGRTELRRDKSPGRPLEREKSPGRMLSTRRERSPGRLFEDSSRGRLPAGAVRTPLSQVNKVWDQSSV

Chain of PDPK1 (O15530 whole entry): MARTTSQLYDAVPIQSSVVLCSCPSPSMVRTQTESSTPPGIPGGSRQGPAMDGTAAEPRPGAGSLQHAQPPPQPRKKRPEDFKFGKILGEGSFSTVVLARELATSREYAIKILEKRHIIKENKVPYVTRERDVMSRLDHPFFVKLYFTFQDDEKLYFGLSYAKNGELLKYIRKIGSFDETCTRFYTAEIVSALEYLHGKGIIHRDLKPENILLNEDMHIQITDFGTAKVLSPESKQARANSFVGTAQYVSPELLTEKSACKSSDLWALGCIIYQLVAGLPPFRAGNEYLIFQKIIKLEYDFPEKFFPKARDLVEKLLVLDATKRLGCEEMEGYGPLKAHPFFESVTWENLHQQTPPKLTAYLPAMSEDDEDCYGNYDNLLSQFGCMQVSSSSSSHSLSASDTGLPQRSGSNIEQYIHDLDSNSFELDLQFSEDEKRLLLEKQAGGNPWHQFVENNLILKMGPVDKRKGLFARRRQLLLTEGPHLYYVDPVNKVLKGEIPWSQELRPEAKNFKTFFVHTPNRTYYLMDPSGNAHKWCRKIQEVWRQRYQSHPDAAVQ
Chain of CSNK1G1 (Q9HCP0 whole entry): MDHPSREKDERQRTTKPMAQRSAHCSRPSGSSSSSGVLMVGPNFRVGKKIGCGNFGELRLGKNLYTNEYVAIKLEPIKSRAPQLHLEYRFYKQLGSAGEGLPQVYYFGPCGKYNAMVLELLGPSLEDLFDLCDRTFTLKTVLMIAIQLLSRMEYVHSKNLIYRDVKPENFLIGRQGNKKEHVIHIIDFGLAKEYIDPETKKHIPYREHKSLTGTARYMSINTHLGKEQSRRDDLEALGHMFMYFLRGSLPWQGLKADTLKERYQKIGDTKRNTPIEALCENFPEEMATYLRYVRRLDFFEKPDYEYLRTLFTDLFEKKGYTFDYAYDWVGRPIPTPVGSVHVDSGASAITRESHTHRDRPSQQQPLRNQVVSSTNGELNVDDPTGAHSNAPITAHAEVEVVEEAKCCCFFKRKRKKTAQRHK
Chain of MARK3 (P27448 whole entry): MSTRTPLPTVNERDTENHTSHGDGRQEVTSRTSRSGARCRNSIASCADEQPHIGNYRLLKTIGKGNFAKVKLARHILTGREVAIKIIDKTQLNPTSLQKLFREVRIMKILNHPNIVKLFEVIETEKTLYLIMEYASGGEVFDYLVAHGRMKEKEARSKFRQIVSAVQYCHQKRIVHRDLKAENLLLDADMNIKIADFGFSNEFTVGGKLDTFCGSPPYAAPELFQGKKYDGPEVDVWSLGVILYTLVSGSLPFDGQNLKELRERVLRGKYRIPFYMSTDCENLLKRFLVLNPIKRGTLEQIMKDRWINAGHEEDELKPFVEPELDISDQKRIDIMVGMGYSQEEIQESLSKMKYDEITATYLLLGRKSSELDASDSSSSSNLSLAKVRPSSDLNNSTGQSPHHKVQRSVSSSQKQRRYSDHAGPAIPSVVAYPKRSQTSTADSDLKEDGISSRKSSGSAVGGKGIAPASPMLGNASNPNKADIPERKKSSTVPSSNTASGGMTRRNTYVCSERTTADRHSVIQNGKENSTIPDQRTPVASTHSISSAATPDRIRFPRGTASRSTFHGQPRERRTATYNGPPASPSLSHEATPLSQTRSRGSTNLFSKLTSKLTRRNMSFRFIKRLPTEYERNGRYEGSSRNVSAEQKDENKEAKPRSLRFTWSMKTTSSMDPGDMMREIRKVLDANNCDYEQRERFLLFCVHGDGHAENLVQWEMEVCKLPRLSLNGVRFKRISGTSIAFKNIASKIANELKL
Chain of ROCK1 (Q13464 whole entry): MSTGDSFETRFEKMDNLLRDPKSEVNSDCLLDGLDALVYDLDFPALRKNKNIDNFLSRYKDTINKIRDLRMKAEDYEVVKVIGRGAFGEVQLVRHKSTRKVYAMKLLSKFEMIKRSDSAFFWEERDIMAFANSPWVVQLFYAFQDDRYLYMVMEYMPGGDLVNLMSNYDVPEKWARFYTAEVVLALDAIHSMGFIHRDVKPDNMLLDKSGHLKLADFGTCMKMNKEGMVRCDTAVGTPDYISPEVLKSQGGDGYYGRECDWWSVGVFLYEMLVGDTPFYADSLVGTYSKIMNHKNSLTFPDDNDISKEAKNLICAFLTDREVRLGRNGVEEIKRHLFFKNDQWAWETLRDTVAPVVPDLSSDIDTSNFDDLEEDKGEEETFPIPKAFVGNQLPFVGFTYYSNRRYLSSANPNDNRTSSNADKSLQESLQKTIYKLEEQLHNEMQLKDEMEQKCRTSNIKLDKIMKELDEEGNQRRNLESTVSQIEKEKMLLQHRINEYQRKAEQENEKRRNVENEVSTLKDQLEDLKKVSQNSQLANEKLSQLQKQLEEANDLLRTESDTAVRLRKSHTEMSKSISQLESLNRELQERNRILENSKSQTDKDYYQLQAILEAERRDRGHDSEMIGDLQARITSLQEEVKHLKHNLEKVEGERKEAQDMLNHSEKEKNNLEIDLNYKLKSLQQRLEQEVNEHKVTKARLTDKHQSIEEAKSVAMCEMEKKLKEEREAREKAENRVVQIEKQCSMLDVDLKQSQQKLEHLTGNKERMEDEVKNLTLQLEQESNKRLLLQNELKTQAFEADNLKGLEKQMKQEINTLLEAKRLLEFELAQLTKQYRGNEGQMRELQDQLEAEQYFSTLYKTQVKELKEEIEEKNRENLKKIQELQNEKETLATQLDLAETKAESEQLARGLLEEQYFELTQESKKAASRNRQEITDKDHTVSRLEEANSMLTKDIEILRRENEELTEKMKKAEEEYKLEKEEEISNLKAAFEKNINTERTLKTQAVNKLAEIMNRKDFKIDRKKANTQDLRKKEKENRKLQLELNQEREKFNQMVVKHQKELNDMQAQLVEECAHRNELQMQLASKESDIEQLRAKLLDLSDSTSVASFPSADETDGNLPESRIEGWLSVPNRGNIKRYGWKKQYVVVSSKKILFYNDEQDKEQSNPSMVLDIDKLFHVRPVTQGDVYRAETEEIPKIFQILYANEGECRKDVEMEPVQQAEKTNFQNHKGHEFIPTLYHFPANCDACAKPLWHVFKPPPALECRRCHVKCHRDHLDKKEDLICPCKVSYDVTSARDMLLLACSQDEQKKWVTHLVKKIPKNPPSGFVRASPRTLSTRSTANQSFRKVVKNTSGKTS

## CNc1ncc2cc(-c3ccc(-c4cccc(C)n4)cc3Cl)c(=O)n(C[C@H]3OC[C@H](N)CO3)c2n1 [compound 6, G-5555]
CHEK2
  Percent Control: 100%
OSR1
  Percent Control: 99%
PRKCH
  Percent Control: 82%
EPHB4
  Percent Control: 100%
SRC
  Percent Control: 100%
TLK2
  Percent Control: 100%
MYO3B
  Percent Control: 48%
CDK5
  Percent Control: 100%
YANK3
  Percent Control: 99%
CAMK1D
  Percent Control: 43%
ROCK1
  Percent Control: 83%
ICK
  Percent Control: 100%
PIK3CA(H1047L)
  Percent Control: 100%
PRKD1
  Percent Control: 68%
AURKC
  Percent Control: 37%
CDK8
  Percent Control: 100%
RET(M918T)
  Percent Control: 100%
KIT(D816V)
  Percent Control: 100%
PDPK1
  Percent Control: 99%
ULK3
  Percent Control: 90%
FYN
  Percent Control: 100%
MARK3
  Percent Control: 45%
PKN2
  Percent Control: 100%
MET(M1250T)
  Percent Control: 76%
KIT(A829P)
  Percent Control: 81%
CLK1
  Percent Control: 100%
ABL1(E255K)
  Percent Control: 100%
SRPK2
  Percent Control: 98%
CSNK1G1
  Percent Control: 100%
PCTK2
  Percent Control: 100%
CIT
  Percent Control: 100%
